Data published in US7265131B2, “Isoquinolinone derivatives and their use as therapeutic agents” (Exelixis, Inc., priority 2002, dated 2007).

Target: T1, LXR α (Homo sapiens, UniProt Q13133)
T1 construct: Co-transfection expression plasmids, comprising full-length LXR α (pCMX-hLXR α); expressed in transfected cells; host or cells: CV-1 African Green Monkey kidney cells, transient transfection
T1 sequence (Q13133 1-447): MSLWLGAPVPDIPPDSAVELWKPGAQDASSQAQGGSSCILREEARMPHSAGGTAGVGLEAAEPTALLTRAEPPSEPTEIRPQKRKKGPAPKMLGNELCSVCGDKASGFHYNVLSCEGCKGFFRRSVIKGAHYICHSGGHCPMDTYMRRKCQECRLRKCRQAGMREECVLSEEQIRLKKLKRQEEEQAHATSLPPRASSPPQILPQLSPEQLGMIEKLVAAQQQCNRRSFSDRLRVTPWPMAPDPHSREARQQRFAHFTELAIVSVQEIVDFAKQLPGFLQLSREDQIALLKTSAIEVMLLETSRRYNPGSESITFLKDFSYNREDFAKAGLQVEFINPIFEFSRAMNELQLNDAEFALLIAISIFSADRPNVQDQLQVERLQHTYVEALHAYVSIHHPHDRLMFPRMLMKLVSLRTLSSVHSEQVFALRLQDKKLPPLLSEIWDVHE
T1 sequence (P19793 1-462 partner): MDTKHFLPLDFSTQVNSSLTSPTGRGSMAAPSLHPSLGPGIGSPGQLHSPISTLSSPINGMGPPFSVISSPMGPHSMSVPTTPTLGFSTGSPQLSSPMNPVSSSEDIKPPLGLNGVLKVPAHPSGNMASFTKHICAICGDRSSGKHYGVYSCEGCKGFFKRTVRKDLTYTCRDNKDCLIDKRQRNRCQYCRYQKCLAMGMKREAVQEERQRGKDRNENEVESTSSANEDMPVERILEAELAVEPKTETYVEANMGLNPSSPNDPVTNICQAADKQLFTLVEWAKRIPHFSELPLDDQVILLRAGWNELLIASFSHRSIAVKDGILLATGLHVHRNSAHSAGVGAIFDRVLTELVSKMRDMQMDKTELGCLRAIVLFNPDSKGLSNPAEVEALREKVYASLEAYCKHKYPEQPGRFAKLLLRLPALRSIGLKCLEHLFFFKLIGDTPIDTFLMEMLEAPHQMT
Assay: LXR/LXRE co-transfection assay (luciferase reporter, CV-1 cells)
Type: cell-based
Conditions: for Emax: CV-1, average percent efficacy, relative to control N-(3-((4-fluorophenyl)-(naphthalene-2-sulfonyl)amino)propyl)-2,2-dimethylpropionamide, read-out: % Eff(a); for EC50: average EC50 for agonism, cotransfection assay, CV-1 cells
From the text: To measure the ability of compounds to activate or inhibit the transcriptional activity of LXR in a cell based assay, the co-transfection assay was used. It has been shown that LXR functions as a heterodimer with RXR. For the co-transfection assay, expression plasmids for LXR and RXR are introduced via transient transfection into mammalian cells along with a luciferase reporter plasmid that contains one copy of a DNA sequence that is bound by LXR-RXR heterodimers (LXRE; Willy, P. et al. 1995). Treatment of transfected cells with an LXR agonist increases the transcriptional activity of LXR, which is measured by an increase in luciferase activity.
1. CV-1 African Green Monkey Kidney Cells
2. Co-transfection expression plasmids, comprising full-length LXR α (pCMX-hLXR α), LXR β (pCMX-hLXR β), or RXR α (pCMX-RXR), reporter plasmid (LXREx1-Tk-Luciferase), and control (pCMX-Galactosidase expression vector) (Willey et al. Genes & Development 9 1033-1045 (1995)).
CV-1 cells were prepared 24 hours prior to the experiment by plating them into T-175 flasks or 500 cm^2 dishes in order to achieve 70-80% confluency on the day of the transfection. The number of cells to be transfected was determined by the number of plates to be screened. Each 384 well plate requires 1.92×10^6 cells or 5000 cells per well. DNA Transfection Reagent was prepared by mixing the required plasmid DNAs with a cationic lipid transfection reagent FuGENE6 (Roche) by following the instructions provided with the reagents. Optimal DNA amounts were determined empirically per cell line and size of vessel to be transfected. 10-12 mL of media was added to the DNA Transfection Reagent and this mixture was added to the cells after aspirating media from the T175 cm^2 flask. Cells were then incubated at least 5 hours at 37° C. to prepare screening cells.
Luciferase assay reagent was prepared by combining before use (per 10 mL):
Assay plates were prepared by dispensing 5 μL of compound per well of a 384 well plate to achieve final compound concentration of 10 μM and no more than 1% DMSO. Media was removed from the screening cells, the cells trypsinized, harvested cells by centrifugation, counted, and plated at a density of approximately 5000 cells per well in the 384 well assay plate prepared above in a volume of about 45 μL. Assay plates containing both compounds and screening cells (50 μL in total volume) were incubated for 20 hours at 37° C.
After incubation with compounds, media was removed from the cells and lysis buffer (30 μuL/well) added. After 30 minutes at ambient temperature, luciferase assay buffer (30 μL/well) was added and the assay plates read on a luminometer (PE Biosystems Northstar reader with on-board injectors, or equivalent). Plates were read immediately after addition of luciferase assay buffer.
The LXR/LXRE co-transfection assay can be used to establish the EC50/IC50 values for potency and percent activity or inhibition for efficacy. Efficacy defines the activity of a compound relative to a high control ((N-(3-((4-fluorophenyl)-(naphthalene-2-sulfonyl)amino)propyl)-2,2-dimethylpropionamide)) or a low control (DMSO/vehicle). The dose response curves are generated from an 8 point curve with concentrations differing by ½ LOG units. Each point represents the average of 4 wells of data from a 384 well plate.
The data from this assay is fitted to the following equation, from the EC50 value may be solved: Y=Bottom+(Top-Bottom)/(1+10^((logEC50-X*HillSlope))
The EC50/IC50 is therefore defined as the concentration at which an agonist or antagonist elicits a response that is half way between the Top (maximum) and Bottom (baseline) values. The EC50/IC50 values represented are the averages of at least 3 independent experiments. […]

Compound	Emax [%]	EC50 [nM]
Cc1ccc(Cn2c(C#CC(C)(C)O)cc3ccccc3c2=O)c(C)c1 [2-(2,4-dimethylbenzyl)-3-(3-hydroxy-3-methylbut-1-ynyl)-2H-isoquinolin-1-one]	40 to 90	> 500
Cc1ccc(Cn2c(-c3ccc(Oc4ccccc4)cc3)cc3ccccc3c2=O)c(C)c1 [2-(2,4-dimethylbenzyl)-3-(4-phenoxyphenyl)-2H-isoquinolin-1-one]	> 90	10 to 150
Cc1cccc(-c2cc3ccccc3c(=O)n2Cc2ccc(C)cc2C)c1 [2-(2,4-dimethylbenzyl)-3-m-tolyl-2H-isoquinolin-1-one]	40 to 90	150 to 500
Cc1ccc(Cn2c(-c3ccsc3)cc3ccccc3c2=O)c(C)c1 [2-(2,4-dimethylbenzyl)-3-thiophen-3-yl-2H-isoquinolin-1-one]	40 to 90	> 500
Cc1cccc(-c2cc3ccccc3c(=O)n2Cc2ccccc2)c1 [2-benzyl-3-m-tolyl-2H-isoquinolin-1-one]	< 40	> 500
O=c1c2c(Cl)cccc2cc(-c2cc(-c3cc(C(F)(F)F)cc(C(F)(F)F)c3)co2)n1Cc1ccc(F)cc1F [3-[4-(3,5-bis-trifluoromethylphenyl)furan-2-yl]-8-chloro-2-(2,4-difluorobenzyl)-2H-isoquinolin-1-one]	40 to 90	10 to 150
Nc1ccc(-c2coc(-c3cc4cccc(Cl)c4c(=O)n3Cc3ccc(F)cc3F)c2)cc1C(F)(F)F [3-[4-(4-amino-3-trifluoromethylphenyl)furan-2-yl]-8-chloro-2-(2,4-difluorobenzyl)-2H-isoquinolin-1-one]	> 90	< 10
O=c1c2c(Cl)cccc2cc(-c2ccc(Oc3ccccc3)cc2)n1Cc1ccc(F)cc1F [8-chloro-2-(2,4-difluorobenzyl)-3-(4-phenoxyphenyl)-2H-isoquinolin-1-one]	> 90	10 to 150
O=c1c2c(Cl)cccc2cc(-c2ccc(Oc3cnccn3)cc2)n1Cc1ccc(F)cc1F [8-chloro-2-(2,4-difluorobenzyl)-3-[4-(pyrazin-2-yloxy)phenyl]-2H-isoquinolin-1-one]	> 90	< 10
CS(=O)(=O)c1ccc(-c2ccc(-c3cc4cccc(Cl)c4c(=O)n3Cc3ccc(F)cc3F)s2)cc1 [8-chloro-2-(2,4-difluorobenzyl)-3-[5-(4-methanesulfonylphenyl)thiophen-2-yl]-2H-isoquinolin-1-one]	40 to 90	10 to 150
O=c1c2c(Cl)cccc2cc(-c2ccc(Oc3ccccc3)cc2)n1CC1CCCCC1 [8-chloro-2-cyclohexylmethyl-3-(4-phenoxyphenyl)-2H-isoquinolin-1-one]	40 to 90	10 to 150
O=c1c2c(Cl)cccc2cc(-c2ccc(Oc3ccccc3)cc2)n1Cc1cccs1 [8-chloro-3-(4-phenoxyphenyl)-2-thiophen-2-ylmethyl-2H-isoquinolin-1-one]	40 to 90	10 to 150
CCOc1ccc(-c2csc(-c3cc4cccc(Cl)c4c(=O)n3Cc3ccc(F)cc3F)c2)cc1Cl [8-chloro-3-[4-(3-chloro-4-ethoxyphenyl)thiophen-2-yl]-2-(2,4-difluorobenzyl)-2H-isoquinolin-1-one]	40 to 90	10 to 150
Cc1ccc(Cn2c(-c3ccc(Oc4ccccc4)cc3)cc3cccc(C)c3c2=O)cc1 [8-methyl-2-(4-methylbenzyl)-3-(4-phenoxyphenyl)-2H-isoquinolin-1-one]	40 to 90	10 to 150
